In brackets after ≈: the same amount, converted by molar mass. Several values for one entry are separate records, joined by “and”; a condition that tells them apart may be missing. Identical values can stand only once. Like-named read-outs stand apart in the source and are kept apart here.
Legend:
[1] = biological target: CYP 3A4 (Homo sapiens, UniProt P08684); assay: Cytochrome P450 inhibition assay, 3A4; format: in vitro ADME
[2] = Microsome stability, rat liver microsomes; format: in vitro ADME; conditions: read-out: Microsome stability t1/2 (R)
[3] = Microsome stability, human liver microsomes; format: in vitro ADME; conditions: read-out: Microsome stability t1/2 (H)
[4] = biological target: CK1ε (Homo sapiens, UniProt P49674); assay: In-house kinase inhibition assay, CK1ε; format: biochemical
Source text: (§1) [drawing 21] wherein the substituents W, X, Y, Z, and R^1, are as specified in the respective Table columns.

[5] = Mouse PK; format: in vivo; conditions: for AUC: read-out: AUCINF_dos (converted)
[6] = biological target: CK1δ (Homo sapiens, UniProt P48730); assay: In-house kinase inhibition assay, CK1δ; format: biochemical
Source text: as §1

[7] = Solubility in pH 7.4 phosphate buffered saline; format: physicochemical; conditions: aqueous buffer
[8] = biological target: CYP 2D6 (Homo sapiens, UniProt P10635); assay: Cytochrome P450 inhibition assay, 2D6; format: in vitro ADME
[9] = biological target: T1, CDK12 (Homo sapiens, UniProt Q9NYV4); assay: Competition binding assay, DiscoverX (Kinomescan), CDK12
T1 construct: purchased DiscoverX
Source text: as §1
In addition to screening a selected set of new inhibitors in CDK12/13 enzyme assays using Kinomescan™ technology, we tested all new compounds in a mechanism of action assay, which detects inhibition of phosphorylation of serine 2 (pSer2) on the C-terminal repeat domain (CTD) of RNA pol II.

[10] = biological target: T2, CYP 1A2 (Homo sapiens, UniProt P05177); assay: Cytochrome P450 inhibition assay, 1A2; format: in vitro ADME
T2 sequence (P05177 1-516): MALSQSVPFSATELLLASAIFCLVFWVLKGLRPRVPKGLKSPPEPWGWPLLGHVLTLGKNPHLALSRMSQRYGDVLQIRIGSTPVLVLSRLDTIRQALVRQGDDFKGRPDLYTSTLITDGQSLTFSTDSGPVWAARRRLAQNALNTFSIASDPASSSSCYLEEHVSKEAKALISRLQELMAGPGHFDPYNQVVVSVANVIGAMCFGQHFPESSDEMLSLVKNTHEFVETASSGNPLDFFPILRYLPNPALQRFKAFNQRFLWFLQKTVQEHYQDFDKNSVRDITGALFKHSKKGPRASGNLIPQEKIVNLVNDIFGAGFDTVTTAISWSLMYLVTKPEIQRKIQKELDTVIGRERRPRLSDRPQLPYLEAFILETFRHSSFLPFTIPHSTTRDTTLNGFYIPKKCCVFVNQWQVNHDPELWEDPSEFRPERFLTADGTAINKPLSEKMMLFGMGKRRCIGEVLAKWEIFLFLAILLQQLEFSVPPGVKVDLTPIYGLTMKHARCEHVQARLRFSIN

[11] = biological target: T3, CDK13 (Homo sapiens, UniProt Q14004); assay: Competition binding assay, DiscoverX (Kinomescan), CDK13
T3 construct: purchased DiscoverX
Source text: as §1
In addition to screening a selected set of new inhibitors in CDK12/13 enzyme assays using Kinomescan™ technology, we tested all new compounds in a mechanism of action assay, which detects inhibition of phosphorylation of serine 2 (pSer2) on the C-terminal repeat domain (CTD) of RNA pol II. […] In order to confirm that CDK12/13 inhibition is driving cell death, we also plotted the growth inhibition pIC50's with pSer2 inhibition data. There was a good correlation when using the cell proliferation data from both U87 and MDA-MB-231 cell lines (FIGS. 5 and 6).

[12] = biological target: CYP 2C9 (Homo sapiens, UniProt P11712); assay: Cytochrome P450 inhibition assay, 2C9; format: in vitro ADME
[13] = Microsome stability, mouse liver microsomes; format: in vitro ADME; conditions: read-out: Microsome stability t1/2
[14] = test system: U87 cell line; assay: Cell proliferation / growth inhibition, U87, 72 h (Cell-Titer Glo); format: cell-based; conditions: Homo sapiens, U-87 MG
[15] = test system: MDA-MB-231 cell line; assay: Cell proliferation / growth inhibition, MDA-MB-231, 72 h (Cell-Titer Glo); format: cell-based; conditions: Homo sapiens
[16] = test system: other CDKs (CDK panel); assay: Selectivity in CDK panel (% of inhibition at 10 μM); format: biochemical; conditions: FIG. 2
Method: FIGS. 2a and 2b. Selectivity of selected CDK12/13 inhibitors against other CDKs (% of inhibition at 10 μM)

[17] = read-out: CK1δ IC50, read-out: CK1σ IC50

Sequence of CK1δ (P48730 whole entry): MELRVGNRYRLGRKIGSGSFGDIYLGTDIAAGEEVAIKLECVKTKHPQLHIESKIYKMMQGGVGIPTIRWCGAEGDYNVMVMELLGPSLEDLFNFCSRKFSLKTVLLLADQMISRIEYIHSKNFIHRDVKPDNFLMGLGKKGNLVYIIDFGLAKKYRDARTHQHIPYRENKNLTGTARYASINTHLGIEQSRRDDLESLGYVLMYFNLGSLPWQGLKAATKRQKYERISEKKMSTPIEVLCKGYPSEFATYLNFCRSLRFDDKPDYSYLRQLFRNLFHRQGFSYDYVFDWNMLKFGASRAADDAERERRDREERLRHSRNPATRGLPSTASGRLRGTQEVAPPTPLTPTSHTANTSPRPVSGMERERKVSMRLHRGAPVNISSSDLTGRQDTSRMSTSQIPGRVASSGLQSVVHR
Sequence of CYP 2D6 (P10635 whole entry): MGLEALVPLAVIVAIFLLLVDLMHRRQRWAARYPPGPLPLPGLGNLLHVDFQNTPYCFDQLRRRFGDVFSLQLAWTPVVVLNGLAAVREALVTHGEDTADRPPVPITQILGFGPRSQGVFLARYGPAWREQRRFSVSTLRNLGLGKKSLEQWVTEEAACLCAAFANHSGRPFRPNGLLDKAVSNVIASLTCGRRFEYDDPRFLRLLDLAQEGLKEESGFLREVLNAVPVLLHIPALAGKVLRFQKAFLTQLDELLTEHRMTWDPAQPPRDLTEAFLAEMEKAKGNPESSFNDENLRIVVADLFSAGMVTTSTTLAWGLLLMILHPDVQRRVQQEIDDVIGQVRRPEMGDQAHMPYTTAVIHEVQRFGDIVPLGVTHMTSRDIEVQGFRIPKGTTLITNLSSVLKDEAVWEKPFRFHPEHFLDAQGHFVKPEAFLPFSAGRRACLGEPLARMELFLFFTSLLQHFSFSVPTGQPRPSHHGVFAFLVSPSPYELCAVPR
Sequence of CYP 2C9 (P11712 whole entry): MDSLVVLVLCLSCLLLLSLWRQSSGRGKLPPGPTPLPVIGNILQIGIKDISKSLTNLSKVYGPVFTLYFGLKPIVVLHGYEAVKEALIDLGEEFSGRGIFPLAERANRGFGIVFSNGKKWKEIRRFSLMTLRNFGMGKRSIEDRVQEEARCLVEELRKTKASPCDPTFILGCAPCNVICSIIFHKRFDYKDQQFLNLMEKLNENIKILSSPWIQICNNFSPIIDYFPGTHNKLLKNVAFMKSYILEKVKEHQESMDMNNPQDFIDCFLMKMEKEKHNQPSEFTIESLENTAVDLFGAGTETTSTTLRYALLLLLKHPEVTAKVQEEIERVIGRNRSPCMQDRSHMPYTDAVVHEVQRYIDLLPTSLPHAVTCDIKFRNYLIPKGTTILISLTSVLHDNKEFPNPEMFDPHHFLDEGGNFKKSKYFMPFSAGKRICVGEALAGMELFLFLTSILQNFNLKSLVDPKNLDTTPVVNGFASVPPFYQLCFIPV
Sequence of CK1ε (P49674 whole entry): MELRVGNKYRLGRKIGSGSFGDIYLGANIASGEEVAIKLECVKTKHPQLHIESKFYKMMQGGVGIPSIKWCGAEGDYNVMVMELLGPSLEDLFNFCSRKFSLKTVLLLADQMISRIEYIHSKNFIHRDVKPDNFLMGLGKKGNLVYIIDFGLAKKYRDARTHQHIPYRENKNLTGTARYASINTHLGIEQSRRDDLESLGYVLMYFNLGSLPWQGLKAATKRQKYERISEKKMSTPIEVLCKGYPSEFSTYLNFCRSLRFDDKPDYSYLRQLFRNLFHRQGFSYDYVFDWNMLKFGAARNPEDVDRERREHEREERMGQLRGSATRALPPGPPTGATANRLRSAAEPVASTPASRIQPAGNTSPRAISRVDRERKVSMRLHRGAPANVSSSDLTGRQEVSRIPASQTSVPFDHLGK
Sequence of CYP 3A4 (P08684 whole entry): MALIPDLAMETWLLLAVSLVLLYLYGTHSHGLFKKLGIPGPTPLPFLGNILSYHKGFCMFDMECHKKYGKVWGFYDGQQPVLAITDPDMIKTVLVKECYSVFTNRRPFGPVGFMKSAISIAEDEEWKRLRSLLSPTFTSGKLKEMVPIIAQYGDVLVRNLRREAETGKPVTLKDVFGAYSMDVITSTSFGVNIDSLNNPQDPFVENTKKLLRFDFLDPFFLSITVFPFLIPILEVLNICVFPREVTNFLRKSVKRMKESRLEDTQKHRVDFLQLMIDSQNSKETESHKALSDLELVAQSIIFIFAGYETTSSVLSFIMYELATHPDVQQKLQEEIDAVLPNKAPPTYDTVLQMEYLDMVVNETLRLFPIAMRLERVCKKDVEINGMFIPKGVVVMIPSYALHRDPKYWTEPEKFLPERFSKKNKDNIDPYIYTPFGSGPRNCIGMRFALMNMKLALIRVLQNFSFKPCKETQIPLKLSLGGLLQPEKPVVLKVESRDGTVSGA
T1 sequence (Q9NYV4 whole entry): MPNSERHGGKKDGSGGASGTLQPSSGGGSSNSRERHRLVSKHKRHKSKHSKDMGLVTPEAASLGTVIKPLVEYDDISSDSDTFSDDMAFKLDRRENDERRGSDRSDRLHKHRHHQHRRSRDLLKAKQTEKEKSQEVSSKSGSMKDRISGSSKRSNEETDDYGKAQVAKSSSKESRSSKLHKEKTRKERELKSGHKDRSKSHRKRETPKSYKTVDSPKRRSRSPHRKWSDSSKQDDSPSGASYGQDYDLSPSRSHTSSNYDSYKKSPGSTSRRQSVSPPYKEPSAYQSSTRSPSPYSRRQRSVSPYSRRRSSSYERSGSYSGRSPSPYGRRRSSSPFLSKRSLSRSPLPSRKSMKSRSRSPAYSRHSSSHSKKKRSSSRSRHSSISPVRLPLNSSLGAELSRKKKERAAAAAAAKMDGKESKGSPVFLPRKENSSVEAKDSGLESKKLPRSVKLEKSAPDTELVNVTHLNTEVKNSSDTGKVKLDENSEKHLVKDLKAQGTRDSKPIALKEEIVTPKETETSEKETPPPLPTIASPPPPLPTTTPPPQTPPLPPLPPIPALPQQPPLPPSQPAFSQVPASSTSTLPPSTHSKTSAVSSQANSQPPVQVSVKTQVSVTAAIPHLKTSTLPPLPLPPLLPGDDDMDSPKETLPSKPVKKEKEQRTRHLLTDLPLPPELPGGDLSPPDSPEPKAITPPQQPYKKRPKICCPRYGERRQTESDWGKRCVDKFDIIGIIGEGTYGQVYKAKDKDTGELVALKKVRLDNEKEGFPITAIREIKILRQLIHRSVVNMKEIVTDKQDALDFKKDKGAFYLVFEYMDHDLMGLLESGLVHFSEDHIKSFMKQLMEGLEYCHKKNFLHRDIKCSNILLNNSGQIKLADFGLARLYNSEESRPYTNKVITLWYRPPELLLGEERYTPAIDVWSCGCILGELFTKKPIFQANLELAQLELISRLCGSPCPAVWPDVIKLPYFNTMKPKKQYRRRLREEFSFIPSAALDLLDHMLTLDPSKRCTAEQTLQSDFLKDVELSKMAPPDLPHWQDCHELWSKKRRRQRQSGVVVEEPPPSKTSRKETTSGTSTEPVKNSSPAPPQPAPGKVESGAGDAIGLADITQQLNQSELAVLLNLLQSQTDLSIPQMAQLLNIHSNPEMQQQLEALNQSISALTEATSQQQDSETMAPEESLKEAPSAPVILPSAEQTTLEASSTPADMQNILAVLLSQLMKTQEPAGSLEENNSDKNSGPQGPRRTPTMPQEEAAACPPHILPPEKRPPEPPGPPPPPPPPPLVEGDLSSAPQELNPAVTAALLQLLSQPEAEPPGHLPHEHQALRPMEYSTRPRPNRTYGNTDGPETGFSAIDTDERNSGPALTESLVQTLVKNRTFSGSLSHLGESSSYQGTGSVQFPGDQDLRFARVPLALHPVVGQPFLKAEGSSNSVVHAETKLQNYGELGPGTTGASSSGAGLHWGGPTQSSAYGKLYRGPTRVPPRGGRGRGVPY

| SMILES | CYP inhibition 3A4 [1] [% inh] | half-life [2] [min] | half-life [3] [min] | IC50 [4] [nM] | IC50 [6, 17] [nM] | solubility [7] [µM] | CYP inhibition 2D6 [8] [% inh] | CYP inhibition 1A2 [10] [% inh] | CYP inhibition 2C9 [12] [% inh] | half-life [13] [min] | other results |
| --- | --- | --- | --- | --- | --- | --- | --- | --- | --- | --- | --- |
| Cn1cc(-n2cnc3c(NCc4nc5c(F)c(F)ccc5[nH]4)nc(N4CCOCC4)nc32)cn1 [Compound 1, N-((4,5-difluoro-1H-benzo[d]imidazol-2-yl)methyl)-9-(1-methyl-1H-pyrazol-4-yl) morpholino-9H-purin-6-amine] | 56 | 20 | 22 | 4600 | 8600 | 6.1 (≈ 2.85 µg/mL) | −3 | 10 | 23 | 9 | AUC % Extrap ([5]; IP 30 mg/kg): 0.1%; CI_obs ([5]; IP 30 mg/kg): 13.4 mL/min/kg; AUC(0-t) ([5]; in vivo, IP 30 mg/kg): 25400 ng·h/mL and 55 µM·h; half-life ([5]; in vivo, IP 30 mg/kg, 10/10/80 DMSO/Tween-80/water): 179 min; AUC ([5]; in vivo, IP 30 mg/kg): 25500 ng·h/mL; Cmax ([5]; in vivo, IP 30 mg/kg, read-out: Cmax): 9330 ng/mL and 20 µM; Tmax ([5]; in vivo, IP 30 mg/kg, read-out: Tmax): 60 min; Kd [9]: 14 nM; Kd [11]: 5 nM |
| Cn1cc(-n2cnc3c(NCc4nc5cc(F)c(F)cc5[nH]4)nc(N4CCOCC4)nc32)cn1 [Compound 2, N-((5,6-difluoro-1H-benzo[d]imidazol-2-yl)methyl)-9-(1-methyl-1H-pyrazol-4-yl) morpholino-9H-purin-6-amine] | 55 | 18 | 39 | 6500 | > 9900 | 0.8 (≈ 0.373 µg/mL) | 2 | 5 | 23 | 11 | – |
| Cc1cc(-n2cnc3c(NCc4nc5c(F)c(F)ccc5[nH]4)nc(N4CCOCC4)nc32)no1 [Compound 3, N-((4,5-difluoro-1H-benzo[d]imidazol-2-yl)methyl)-9-(5-methylisoxazol-3-yl)-2-morpholino-9H-purin-6-amine] | 55 | 11 | 13 | 1250 | 4740 | 3.6 (≈ 1.68 µg/mL) | 2 | 5 | 23 | 7 | Kd [9]: 22 nM; Kd [11]: 4 nM |
| Fc1ccc2[nH]c(CNc3nc(N4CCOCC4)nc4c3ncn4-c3cscn3)nc2c1F [Compound 4, N-((4,5-difluoro-1H-benzo[d]imidazol-2-yl)methyl)-2-morpholino-9-(thiazol-4-yl)-9H-purin-6-amine] | 89 | 9 | 16 | – | – | 0.8 (≈ 0.376 µg/mL) | 57 | 97 | 89 | 6 | GI50 [14]: < 2 nM; GI50 [15]: < 2 nM |
| Cn1cc(-n2cnc3c(NCc4nc5cc(Cl)c(Cl)cc5[nH]4)nc(N4CCOC[C@@H]4CO)nc32)cn1 [Compound 6, (S)-(4-(6-(((5,6-dichloro-1H-benzo[d]imidazol-2-yl)methyl)amino)-9-(1-methyl-1H-pyrazol-4-yl)-9H-purin-2-yl)morpholin-3-yl)methanol] | 77 | 19 | 21 | – | – | 0.8 (≈ 0.424 µg/mL) | 42 | 42 | 69 | 13 | – |
| Cn1cc(-n2cnc3c(NCc4nc5cc(Cl)c(Cl)cc5[nH]4)nc(N4CCOC[C@H]4CO)nc32)cn1 [Compound 7, (R)-(4-(6-(((5,6-dichloro-1H-benzo[d]imidazol-2-yl)methyl)amino)-9-(1-methyl-1H-pyrazol-4-yl)-9H-purin-2-yl)morpholin-3-yl)methanol] | 54 | 25 | 27 | – | – | 0.7 (≈ 0.371 µg/mL) | 29 | 39 | 54 | 18 | AUC % Extrap ([5]; IP 20 mg/kg): 1.0%; CI_obs ([5]; IP 20 mg/kg): 61.6 mL/min/kg; Tmax ([5]; IP 20 mg/kg): 60 min; T1/2 ([5]; IP 20 mg/kg, 10/10/80 DMSO/Tween-80/water): 223 min; AUC ([5]; in vivo, IP 20 mg/kg): 5530 ng·h/mL |
| COc1cc2nc(CNc3nc(N4CCOCC4)nc4c3ncn4-c3cnn(C)c3)[nH]c2cc1Cl [Compound 10] | – | – | – | – | – | – | – | – | – | – | IC50 ([6]; read-out: CK1σ IC50): 7730 nM |
| Fc1cccc(-n2cnc3c(NCc4nc5c(F)c(F)ccc5[nH]4)nc(N4CCOCC4)nc32)c1 [SR-3029] | – | – | – | – | – | – | – | – | – | – | Selectivity in CDK panel [16]: good selectivity |

Further lines, with some results ahead:

| CYP inhibition 3A4 [1] [% inh] | half-life [2] [min] | half-life [3] [min] | IC50 [4] [nM] | IC50 [6, 17] [nM] | solubility [7] [µM] | CYP inhibition 2D6 [8] [% inh] | CYP inhibition 1A2 [10] [% inh] | CYP inhibition 2C9 [12] [% inh] | half-life [13] [min] | SMILES | other results |
| --- | --- | --- | --- | --- | --- | --- | --- | --- | --- | --- | --- |
| – | – | – | 632 | 419 | – | – | – | – | – | Fc1ccc2[nH]c(CNc3nc(N4CCOCC4)nc4c3ncn4-c3cncs3)nc2c1F [Compound 8, N-((4,5-difluoro-1H-benzo[d]imidazol-2-yl)methyl)-2-morpholino-9-(thiazol-5-yl)-9H-purin-6-amine] | – |
| – | – | – | 1070 | 400 | – | – | – | – | – | Fc1ccc2[nH]c(CNc3nc(N4CCOCC4)nc4c3ncn4-c3nccs3)nc2c1F [Compound 9, N-((4,5-difluoro-1H-benzo[d]imidazol-2-yl)methyl)-2-morpholino-9-(thiazol-2-yl)-9H-purin-6-amine] | – |

— US11666578B2, “Small molecule inhibitors of CDK12/CDK13” (The Scripps Research Institute, priority 2018, dated 2023)
